From ChEMBL document CHEMBL1201862, “PubChem BioAssay data set” (2004)
Where “and” joins values, the source holds several entries; their conditions need not be identical. Equal entries are not always repeated. Calls of active or inactive are those of the source.

How the values were obtained:
cells = format: functional, cell-based
[1] = target: T1, Nuclear receptor subfamily 0 group B member 1 (Homo sapiens, UniProt P51843); format: functional, cell-based;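 further: HEK293T cells transfected with SF-1 and DAX-1 plus StAR promoter luciferase reporter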
T1 sequence (P51843 whole entry): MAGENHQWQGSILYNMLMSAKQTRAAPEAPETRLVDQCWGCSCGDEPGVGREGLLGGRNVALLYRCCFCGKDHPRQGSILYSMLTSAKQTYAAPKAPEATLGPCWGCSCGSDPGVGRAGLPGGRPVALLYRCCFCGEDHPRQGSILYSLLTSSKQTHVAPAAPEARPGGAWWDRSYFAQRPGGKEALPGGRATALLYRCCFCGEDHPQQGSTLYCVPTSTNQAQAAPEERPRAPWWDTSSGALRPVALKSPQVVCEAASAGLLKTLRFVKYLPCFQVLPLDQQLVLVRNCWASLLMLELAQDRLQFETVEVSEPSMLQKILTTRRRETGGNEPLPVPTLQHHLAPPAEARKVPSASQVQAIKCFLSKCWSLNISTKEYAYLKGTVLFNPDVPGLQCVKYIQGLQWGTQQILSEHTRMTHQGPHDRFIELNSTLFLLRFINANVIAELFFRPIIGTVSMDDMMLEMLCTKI

[2] = activation of miR-122 Renilla sensor silencing – cell-based, Huh7 psiCHECK-miR122, Renilla luciferase, cherry-picked, dose response (AID 651956); format: functional;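 further: huh7 hepatoma cells stably carrying a psiCHECK-2 miR-122 sensor plasmid; renilla luciferase signal reporting endogenous miR-122 activity after 48 h compound exposure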
[3] = viability loss in CEM21 cells – cell-based, CellTiter-Glo luminescence, cherry-picked, cytotoxicity control for viral fusion inhibitor project, dose response (AID 652042); format: functional;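 further: potency for signal decrease meaning cytotoxicity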
H4 = test: Luminescence Cell-Based Dose Response HTS to Identify Activators of 5'UTR Stem-Loop Driven Prion Protein mRNA Translation in H4 Neuroglioblastoma Cells. [Related pubchem assays: 1829 (Project Summary), 1814 (Primary HTS)]; format: functional; settings: Homo sapiens
[4] = Luminescence Cell-Based Dose Response HTS to Identify Activators of Luciferase Translation or Activity in H4 […] Cells. [Related pubchem assays: 1829 (Project Summary), 1814 (Primary HTS)]; format: functional
[5] = Luminescence Cell-Based Dose Confirmation HTS to Identify Activators of 5'UTR Stem-Loop Driven Alpha-Synuclein mRNA Translation in H4 Neuroglioblastoma Cells. [Related pubchem assays: 1829 (Project Summary), 1814 (Primary HTS)]; format: functional
[6] = Counterscreen for activators of the function of SWI/SNF related, matrix associated, actin dependent regulator of chromatin, subfamily a, member 2 (SMARCA2, BRM): Luminescence-based cell-based high throughput dose response assay to identify non-selective compounds using the VP16 reporter assay.; format: functional
[7] = target: SWI/SNF-related matrix-associated actin-dependent regulator of chromatin subfamily A member 2 (Homo sapiens, UniProt P51531); test: Luminescence-based cell-based high throughput dose response assay to identify activators of the function of SWI/SNF related, matrix associated, actin dependent regulator of chromatin, subfamily a, member 2 (SMARCA2, BRM).; format: functional
SWI/SNF-related matrix-associated actin-dependent regulator of chromatin subfamily A member 2, sequence (P51531 whole entry): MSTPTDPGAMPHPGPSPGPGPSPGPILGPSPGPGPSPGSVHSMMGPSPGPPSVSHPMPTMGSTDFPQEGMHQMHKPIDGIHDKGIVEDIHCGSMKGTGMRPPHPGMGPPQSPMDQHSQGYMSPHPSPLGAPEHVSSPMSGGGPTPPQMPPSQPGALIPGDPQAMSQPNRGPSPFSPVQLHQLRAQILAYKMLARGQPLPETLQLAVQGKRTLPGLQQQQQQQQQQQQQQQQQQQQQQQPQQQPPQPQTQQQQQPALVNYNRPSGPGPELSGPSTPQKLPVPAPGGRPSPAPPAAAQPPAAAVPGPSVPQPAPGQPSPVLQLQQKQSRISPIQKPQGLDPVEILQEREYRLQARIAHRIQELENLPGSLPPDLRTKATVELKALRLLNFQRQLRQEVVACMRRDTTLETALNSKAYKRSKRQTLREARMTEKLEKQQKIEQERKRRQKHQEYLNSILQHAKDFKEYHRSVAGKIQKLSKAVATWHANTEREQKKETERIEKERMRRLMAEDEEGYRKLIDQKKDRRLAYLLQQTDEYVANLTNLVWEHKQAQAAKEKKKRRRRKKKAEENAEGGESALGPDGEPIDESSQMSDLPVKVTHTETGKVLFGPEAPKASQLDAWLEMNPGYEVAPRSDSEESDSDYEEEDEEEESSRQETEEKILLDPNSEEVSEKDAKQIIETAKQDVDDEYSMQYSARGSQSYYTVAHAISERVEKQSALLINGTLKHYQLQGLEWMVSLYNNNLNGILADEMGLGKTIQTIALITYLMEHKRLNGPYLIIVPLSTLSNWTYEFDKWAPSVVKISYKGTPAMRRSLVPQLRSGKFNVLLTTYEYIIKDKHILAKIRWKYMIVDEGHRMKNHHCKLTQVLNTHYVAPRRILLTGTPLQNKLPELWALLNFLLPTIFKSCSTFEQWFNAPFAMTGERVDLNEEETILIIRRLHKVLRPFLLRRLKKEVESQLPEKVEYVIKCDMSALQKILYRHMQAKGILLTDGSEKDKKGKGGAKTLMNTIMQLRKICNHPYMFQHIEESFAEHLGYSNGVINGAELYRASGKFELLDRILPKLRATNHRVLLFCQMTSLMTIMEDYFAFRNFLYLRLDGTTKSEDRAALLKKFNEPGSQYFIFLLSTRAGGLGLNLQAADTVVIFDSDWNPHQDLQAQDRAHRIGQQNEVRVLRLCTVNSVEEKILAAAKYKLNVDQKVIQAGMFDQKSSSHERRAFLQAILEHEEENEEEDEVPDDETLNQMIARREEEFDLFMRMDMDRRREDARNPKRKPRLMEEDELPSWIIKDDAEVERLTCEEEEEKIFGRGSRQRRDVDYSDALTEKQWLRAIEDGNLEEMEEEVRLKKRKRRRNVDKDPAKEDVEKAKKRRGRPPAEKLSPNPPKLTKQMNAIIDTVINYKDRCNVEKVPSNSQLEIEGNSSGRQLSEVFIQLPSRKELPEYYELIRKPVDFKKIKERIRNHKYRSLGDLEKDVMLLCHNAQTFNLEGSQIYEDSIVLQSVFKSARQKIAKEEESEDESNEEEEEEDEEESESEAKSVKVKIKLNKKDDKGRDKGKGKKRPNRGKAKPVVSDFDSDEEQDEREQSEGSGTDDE

[8] = target: T2, Scavenger receptor class B member 1 (Mus musculus, UniProt Q61009); test: blockers of DiI-HDL lipid transfer via SR-BI – cell-based, ldlA[mSR-BI] CHO, DiI fluorescence, dry powder, set 10, dose response (AID 624029); format: functional
T2 sequence (Q61009 whole entry): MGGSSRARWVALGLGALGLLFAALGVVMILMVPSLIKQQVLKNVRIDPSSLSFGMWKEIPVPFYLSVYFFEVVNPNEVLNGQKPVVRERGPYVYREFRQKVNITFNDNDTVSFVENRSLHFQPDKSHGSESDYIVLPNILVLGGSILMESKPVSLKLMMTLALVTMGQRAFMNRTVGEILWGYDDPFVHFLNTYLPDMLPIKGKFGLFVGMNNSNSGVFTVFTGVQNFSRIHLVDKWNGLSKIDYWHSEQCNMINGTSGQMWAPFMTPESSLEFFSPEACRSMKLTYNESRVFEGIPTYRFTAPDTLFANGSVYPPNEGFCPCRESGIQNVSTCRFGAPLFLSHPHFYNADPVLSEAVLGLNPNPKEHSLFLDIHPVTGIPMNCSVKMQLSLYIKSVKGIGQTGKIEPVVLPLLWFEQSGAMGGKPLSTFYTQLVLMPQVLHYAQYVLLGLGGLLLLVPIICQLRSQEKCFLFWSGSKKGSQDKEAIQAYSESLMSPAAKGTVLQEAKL

[9] = target: T2, Scavenger receptor class B member 1; test: mouse SR-BI DiI-HDL transfer blockers – ldlA[mSR-BI] CHO cells, fluorescence plate reader, dry powder, set 9, dose response (AID 623880); format: functional, cell-based
[10] = HIV-1 AD8 envelope cell-cell fusion blockers – cherry-pick, dose response (AID 652062); format: functional, cell-based;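 further: luciferase signal from cell-cell fusion driven by HIV-1 clade B AD8 Env; potency is for inhibitors of fusion seen as a drop in luminescence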
[11] = off-target signal loss in HeLa-CEM21 co-culture – HeLa F-luc CTL cells, cherry-picked, counter-screen for HIV-1 Env fusion inhibitor project, dose response (AID 652040); format: functional, cell-based;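 further: potency for signal decrease marking cytotoxic or nonspecific inhibition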
[12] = blockers of HIV-1 ZM109 envelope-driven cell-cell fusion – HeLa effector, CEM target cells, luciferase, cherry-pick, dose response (AID 652058); format: functional, cell-based;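 further: luciferase signal from HIV-1 Env mediated cell-cell fusion of effector and target cells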
[13] = target: T3, Methionyl-tRNA synthetase, putative (Trypanosoma brucei brucei, UniProt Q38C91); format: functional, Trypanosoma brucei brucei strain 927/4 GUTat10.1
T3 sequence (Q38C91 whole entry): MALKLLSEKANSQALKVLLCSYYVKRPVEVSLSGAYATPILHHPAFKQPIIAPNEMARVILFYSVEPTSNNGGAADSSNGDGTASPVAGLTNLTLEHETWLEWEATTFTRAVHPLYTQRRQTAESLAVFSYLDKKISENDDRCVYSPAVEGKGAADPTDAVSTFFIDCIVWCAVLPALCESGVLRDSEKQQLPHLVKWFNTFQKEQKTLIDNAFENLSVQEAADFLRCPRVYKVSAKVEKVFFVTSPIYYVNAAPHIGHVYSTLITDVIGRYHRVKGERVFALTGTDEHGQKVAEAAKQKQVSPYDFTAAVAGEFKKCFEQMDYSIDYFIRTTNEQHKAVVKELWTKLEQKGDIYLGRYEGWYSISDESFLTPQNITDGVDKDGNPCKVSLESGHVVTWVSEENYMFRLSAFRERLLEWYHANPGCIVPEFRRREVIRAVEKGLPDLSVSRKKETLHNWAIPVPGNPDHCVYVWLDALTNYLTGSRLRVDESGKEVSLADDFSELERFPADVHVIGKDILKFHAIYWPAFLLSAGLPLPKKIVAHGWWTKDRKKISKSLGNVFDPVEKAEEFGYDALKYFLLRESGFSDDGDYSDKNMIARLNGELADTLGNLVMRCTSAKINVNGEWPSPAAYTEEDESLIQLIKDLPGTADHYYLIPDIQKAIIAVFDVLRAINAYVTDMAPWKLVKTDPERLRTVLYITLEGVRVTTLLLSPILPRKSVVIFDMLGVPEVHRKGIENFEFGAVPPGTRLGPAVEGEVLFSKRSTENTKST

[14] = Counterscreen for inhibitors of Trypanosoma brucei methionyl tRNA synthetase (MetRS): Luminescence-based cell-based high throughput dose response assay to identify compounds that are cytotoxic to Jurkat human T lymphocyte cells.; format: functional
[15] = target: T3, Methionyl-tRNA synthetase, putative; format: functional, Trypanosoma brucei brucei strain 927/4 GUTat10.1; remark: listed apart in the source
[16] = target: T4, Mannose-6-phosphate isomerase (Homo sapiens, UniProt P34949); test: MPI inhibition at elevated mannose 6-phosphate – biochemical, fluorescence intensity, high mannose 6-phosphate, primary screen (AID 1220)
T4 sequence (P34949 whole entry): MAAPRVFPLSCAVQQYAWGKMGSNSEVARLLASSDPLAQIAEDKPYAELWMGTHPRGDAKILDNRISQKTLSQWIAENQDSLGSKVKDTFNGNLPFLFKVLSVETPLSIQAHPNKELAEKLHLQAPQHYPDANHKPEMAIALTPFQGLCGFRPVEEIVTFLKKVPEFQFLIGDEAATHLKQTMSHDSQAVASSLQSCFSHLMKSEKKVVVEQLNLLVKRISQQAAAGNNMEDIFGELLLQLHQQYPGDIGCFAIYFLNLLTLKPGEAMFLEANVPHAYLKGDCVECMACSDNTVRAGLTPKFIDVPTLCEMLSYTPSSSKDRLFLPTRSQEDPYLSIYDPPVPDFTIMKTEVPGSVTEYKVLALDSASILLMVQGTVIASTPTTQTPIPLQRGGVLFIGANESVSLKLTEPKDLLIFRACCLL

[17] = target: Hepatocyte nuclear factor 4-alpha (Homo sapiens, UniProt P41235); format: functional, cell-based;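 further: biochemical luminescence-based dose-response counterscreen measuring inhibition of HNF4 dimerization, run alongside a screen for blockers of ABHD5–perilipin-5 interaction; split luciferase complementation of HNF4 fusion proteins in cell lysate measuring dimerization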
Hepatocyte nuclear factor 4-alpha, sequence (P41235 whole entry, the tested form may be a part): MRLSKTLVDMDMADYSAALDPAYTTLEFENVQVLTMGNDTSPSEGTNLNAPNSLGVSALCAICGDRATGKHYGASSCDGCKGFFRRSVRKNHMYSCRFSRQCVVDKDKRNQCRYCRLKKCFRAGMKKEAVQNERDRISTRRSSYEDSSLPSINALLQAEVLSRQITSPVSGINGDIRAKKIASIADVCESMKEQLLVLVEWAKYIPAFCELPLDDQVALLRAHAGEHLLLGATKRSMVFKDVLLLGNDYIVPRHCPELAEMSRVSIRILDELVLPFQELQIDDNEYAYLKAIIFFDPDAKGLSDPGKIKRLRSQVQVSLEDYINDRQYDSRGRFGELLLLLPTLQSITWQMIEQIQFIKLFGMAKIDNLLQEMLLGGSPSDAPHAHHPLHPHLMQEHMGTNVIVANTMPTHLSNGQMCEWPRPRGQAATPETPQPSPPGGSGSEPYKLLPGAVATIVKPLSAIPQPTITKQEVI

[18] = target: Glucose-6-phosphate 1-dehydrogenase (Homo sapiens, UniProt P11413); test: inhibition of Homo sapiens G6PD, dose series – biochemical, fluorescence, selectivity assay for P. falciparum G6PD inhibitor project, dose response (AID 504792); format: functional
Glucose-6-phosphate 1-dehydrogenase, sequence (P11413 whole entry): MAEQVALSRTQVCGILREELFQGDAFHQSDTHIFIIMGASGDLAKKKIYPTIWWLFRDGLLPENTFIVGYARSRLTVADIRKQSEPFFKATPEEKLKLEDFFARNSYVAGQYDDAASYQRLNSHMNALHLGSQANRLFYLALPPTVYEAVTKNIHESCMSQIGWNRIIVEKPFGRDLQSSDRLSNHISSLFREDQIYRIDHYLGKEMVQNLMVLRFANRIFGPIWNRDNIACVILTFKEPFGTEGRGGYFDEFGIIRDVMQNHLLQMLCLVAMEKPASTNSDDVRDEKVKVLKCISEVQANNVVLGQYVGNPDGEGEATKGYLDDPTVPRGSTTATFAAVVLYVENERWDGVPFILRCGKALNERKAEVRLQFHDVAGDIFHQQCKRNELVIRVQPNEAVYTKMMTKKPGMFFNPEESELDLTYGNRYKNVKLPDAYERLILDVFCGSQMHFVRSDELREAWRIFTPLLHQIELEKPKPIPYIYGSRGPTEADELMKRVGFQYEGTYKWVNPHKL

[19] = target: T5, Rac GTPase-activating protein 1 (Homo sapiens, UniProt Q9H0H5); test: blockers of MgcRacGAP-driven Rac1 GTP hydrolysis – biochemical, ADP Hunter fluorescence, primary and confirmatory, confirmation (AID 624330); format: functional
T5 sequence (Q9H0H5 whole entry): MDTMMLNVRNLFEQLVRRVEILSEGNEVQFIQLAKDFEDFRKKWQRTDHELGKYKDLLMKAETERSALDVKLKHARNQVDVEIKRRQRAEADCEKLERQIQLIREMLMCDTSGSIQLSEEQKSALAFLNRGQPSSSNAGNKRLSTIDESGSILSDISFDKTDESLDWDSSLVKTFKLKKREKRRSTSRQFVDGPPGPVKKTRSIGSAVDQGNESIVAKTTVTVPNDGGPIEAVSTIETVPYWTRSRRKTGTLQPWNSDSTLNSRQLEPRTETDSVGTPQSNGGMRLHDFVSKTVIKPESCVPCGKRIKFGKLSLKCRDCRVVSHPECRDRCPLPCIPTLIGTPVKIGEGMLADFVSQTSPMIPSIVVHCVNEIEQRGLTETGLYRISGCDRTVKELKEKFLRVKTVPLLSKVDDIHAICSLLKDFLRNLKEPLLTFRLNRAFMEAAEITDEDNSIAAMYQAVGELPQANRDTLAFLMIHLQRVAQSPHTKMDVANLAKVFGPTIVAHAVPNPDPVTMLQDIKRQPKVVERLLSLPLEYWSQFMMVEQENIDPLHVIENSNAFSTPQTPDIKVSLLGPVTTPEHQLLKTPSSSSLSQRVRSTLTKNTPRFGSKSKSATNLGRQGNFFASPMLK

[20] = viability loss in HeLa cells – cytotoxicity control for MgcRacGAP inhibitor project, dose response (AID 624300); format: functional
[21] = target: T6, Probable nicotinate-nucleotide adenylyltransferase (Staphylococcus aureus (strain N315), UniProt P65502); format: functional, Staphylococcus aureus subsp. aureus N315; settings: read-out: IC50_Mean;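 on IC50 Mean: confirmatory dose-response retesting of NadD inhibitor hits first found in an ultra-high-throughput screen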
T6 sequence (P65502 whole entry): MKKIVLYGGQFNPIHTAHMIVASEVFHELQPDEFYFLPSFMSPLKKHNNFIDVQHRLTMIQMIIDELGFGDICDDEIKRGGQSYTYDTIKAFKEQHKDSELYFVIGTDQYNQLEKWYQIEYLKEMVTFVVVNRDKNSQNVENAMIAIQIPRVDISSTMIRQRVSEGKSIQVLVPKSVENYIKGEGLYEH

[22] = target: T7, Low molecular weight phosphotyrosine protein phosphatase (Homo sapiens, UniProt P24666); format: functional; settings: read-out: IC50_Mean;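 further: Dose-response confirmation assay measuring inhibition of LMPTP enzyme activity by fluorescence intensity read-out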
T7 sequence (P24666 whole entry): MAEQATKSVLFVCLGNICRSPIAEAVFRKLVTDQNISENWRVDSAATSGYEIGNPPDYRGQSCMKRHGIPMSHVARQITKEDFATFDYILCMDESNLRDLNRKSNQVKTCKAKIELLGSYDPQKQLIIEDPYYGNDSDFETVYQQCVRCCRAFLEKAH

[23] = target: T6, Probable nicotinate-nucleotide adenylyltransferase; format: functional, Staphylococcus aureus subsp. aureus N315
[24] = viability of uninfected HEp-2 cells – cell-based, HTS, cytotoxicity control for RSV inhibitor project, dose response (AID 2410); format: functional; settings: human respiratory syncytial virus

## Clc1ccc(-c2nc3ccc(Br)cn3c2Cc2ccsc2)cc1
cells
  IC50: > 67.5 µM (inactive)
[1]
  IC50: > 67.5 µM (inactive)

## CCOc1ccc(NC(=S)N(CCCN2CCCC2)Cc2cccn2Cc2ccc(Cl)cc2)cc1
[2]
  AC50: 46.1 µM (active)

## COc1ccc(S(=O)(=O)N2CCCCC2)cc1NC(=O)CN(Cc1ccco1)Cc1ccco1
[3]
  AC50: 68.8 µM (active)

## O=C(CNS(=O)(=O)c1ccccc1)OCC(=O)c1ccc(OC(=O)c2ccccc2)cc1
H4
  EC50: > 120 µM (not active)
[4]
  EC50: 11.7 µM (active)
[5]
  EC50: > 120 µM (not active)
[6]
  EC50: > 91.2 µM (inactive)
[7]
  EC50: > 91.2 µM (inactive)

## CC(C)NC(=O)Nc1ccc2c(c1)C(=O)N([C@H](C)CO)C[C@@H](C)[C@H](CN(C)S(=O)(=O)c1ccc(Cl)cc1)O2
[8]
  AC50: 163 nM (active) and 121 nM (active)
[9]
  AC50: 0.0589 µM (active)

## N=c1nc2n(cc1F)C1OC(CO)C(O)C1O2 (stereo unspecified)
[3]
  AC50: 17.9 µM (active)
[10]
  AC50: 0.699 µM (active)
[11]
  AC50: < 0.26 µM (active)
[12]
  AC50: < 0.26 µM (active)

## CCC[C@H]1CN(Cc2cccnc2)C(=O)[C@@H]1CC(=O)Nc1ccc(Br)cc1
[13]
  IC50: 8.41 µM (active)
[14]
  IC50: 83.3 µM (inactive)
[15]
  IC50: 3.49 µM (active)

## CC1=CC(C)(C)Nc2ccc(OC(=O)CN3C(=O)c4cccc5cccc(c45)C3=O)cc21
[16]
  IC50: 33 µM (active)
[17]
  IC50: 6.95 µM (active)
[18]
  IC50: 64.2 µM (inactive)

## CCC(CC)NCc1ccc2c(c1)c1ccccc1n2CC
[19]
  IC50: 133 µM (active)
[20]
  CC50: 100 µM (active)

## COc1ccccc1/C=C/C=N/NC(=O)c1cc(-c2ccco2)[nH]n1
[21]
  IC50: 41.2 µM (active)
[22]
  IC50: 80 µM (inactive)
[23]
  IC50: 19.5 µM (active)

## Cn1ncc(Cl)c1C(=O)Nc1ccc2c(c1)CCC2
cells
  IC50: > 67.5 µM (inactive)
[24]
  CC50: 41.5 µM (active)
[1]
  IC50: > 67.5 µM (inactive)

## C[C@H](C(=O)NC1CCCC1)N(C(=O)Cn1nnc(-c2ccc3c(c2)OCO3)n1)C1CCCCC1
[8]
  AC50: 12.1 nM (active)
[9]
  AC50: 0.015 µM (active)
